{
  "source": "patent US9221900B2",
  "about": "“Methods for identifying safe and functional humanized antibodies” (AC IMMUNE S.A., priority 2010, dated 2015)",
  "key": {"[1]": {"system": "primary cortical cultures", "assay": "Intracellular Aβ1-42 accumulation ELISA on trypsin-cleared cells", "format": "cell-based, rat", "procedure": "FIG. 3 provides graphs and immunocytochemical images corresponding to the experiments described in Example 6.4. Aβ1-42 oligomer binding to neurites was reduced by the anti-Aβ IgG4 monoclonal antibody. […] Green indicates staining with TuJ1, red indicates labeling with anti-Aβ (clone 6E10), and blue indicates staining with DAPI. […] Quantitative measures of fluorescence are shown for 30 min treatment and 18 h treatment (B). Mean results (±SEM) of two experiments are shown. […] Cortical cultures from P1 rats were treated as described for (A), except that Aβ1-42 tagged with HyLite Fluor-488 was used (C). Aβ1-42-labeled samples are shown in the upper panel and DAPI-stained samples are shown in the lower panel. […] Aβ1-42 fluorescence was quantified, with the mean (±SD) of the two independent experiments shown (D). […]\nThe intracellular accumulation of Aβ1-42 was determined in trypsin-cleared cells using an ELISA assay.\nTo measure intracellular Aβ1-42 accumulation by ELISA, primary cortical cultures were treated in 6-well cell-culture plates (Costar) after which they were washed and trypsin-cleared (Bateman et al., 2007) before lysis in cell-lysis buffer consisting of 50 mM Tris-HCl (pH 8.0), 150 mM NaCl, 5 mM EDTA, 1 mM sodium orthovanadate, 1% Triton X-100, and containing protease- and phosphatase-inhibitor cocktails. Protein concentration was determined by the BCA assay (Pierce). […]"}, "[2]": {"system": "mouse embryonic cortical neurons", "assay": "Aβ1-42-induced degeneration of embryonic cortical neurons, TuJ1 immunofluorescence", "format": "cell-based", "settings": "Aβ1-42 with MABT for four days", "procedure": "FIG. 2 provides graphs and immunocytochemical images corresponding to the experiments described in Example 6.3. […] An MTT assay was used to determine cell viability as described in the Methods section. The means (±SEM) of five independent experiments are shown. *P<0.05, **P<0.01. […] Neurotoxicity following extended Aβ1-42 oligomer treatment was tested by morphological analyses (C).\nA non-specific IgG monoclonal antibody was used as a control in all experiments.\nThe cytotoxicity of Aβ1-42 oligomers was tested on mixed cortical cultures at DIV 5. All antibodies, at a final concentration of 100 μg/mL, were co-incubated with Aβ1-42 oligomers for 30 min in serum-free cell culture medium at 37° C. before treatment of cells. For some experiments, mixed cortical cultures were pre-treated for 1 h with 1 μM SB239063, a potent second-generation p38 inhibitor, before treatment with Aβ1-42 oligomers. […] Briefly, for the last 3 h of treatment, cells grown in 96-well plates (Costar) were incubated with the MTT dye solution and the generation of a blue formazan product was measured by reading absorbance at 570 and 690 nm using a plate reader (Tecan). […] A FITC-labeled secondary antibody was used to visualize microtubules using fluorescence microscopy."}, "Aβ1-42": {"target": "Aβ1-42 (Homo sapiens, UniProt P05067)", "sequence (P05067 672-713 limits assumed)": "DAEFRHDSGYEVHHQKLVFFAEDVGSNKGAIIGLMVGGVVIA", "assay": "Aβ1-42 self-assembly assay not relying on ThT fluorescence", "format": "biochemical", "settings": "labeled Aβ1-42 onto immobilized un-labeled Aβ1-42"}},
  "data": [
    {"substance": "MABT: humanized anti-Aβ monoclonal antibody of IgG4 isotype, affinity matured and humanized form of mouse mMABT", "values": [
      {"measurement": "reduction of Aβ1-42 oligomer internalization (intracellular accumulation)", "setting": "[1]", "result": "more than 60%"},
      {"measurement": "neuronal morphology after Aβ1-42 treatment", "setting": "[2]", "result": "appeared similar to control cells"},
      {"measurement": "Aβ1-42 self-assembly", "setting": "Aβ1-42", "result": "prevented the self-assembly of Aβ1-42 in a dose-dependent manner"}
    ]}
  ]
}
